# Laboratory results reported in patent US20220030865A1, “COMPOSITIONS COMPRISING FLORPYRAUXIFEN THAT SAFEN WHITE CLOVER AND METHODS OF USE THEREOF” (CORTEVA AGRISCIENCE LLC, priority 2018, published 2022).
# Columns and labels:
# [1] = tested on: tall buttercup (RANAC, Ranunculus acris); assay: Field trial, postemergence herbicidal effect on pasture weeds
# Excerpt: (§1) Trials were designed as randomized complete blocks with four replicates. All trials were established with a minimum plot size of 3 meters (m) by 8 m (width×length). All herbicide treatments were applied post-emergence with applications made to the undesirable vegetation. Herbicides were applied with backpack sprayers using carbon dioxide (CO2) as a propellant. The sprayers utilized flat fan spray nozzles calibrated to deliver a uniform spray pattern that provided thorough coverage of the foliage using a 187 L/ha spray volume. All treatments were applied with Activator 90 non-ionic surfactant at 0.25% v/v.
# (§2) The weeds were evaluated on the number of days after application (DAA) given in each table below. Injury to the weeds was assessed visually at several intervals after application as percent overall injury, compared to an untreated control plot. The overall injury assessments were based on visual ratings of growth inhibition, leaf deformity, epinasty, and chlorosis.
# [2] = tested on: mayweed chamomile (ANTCO, Anthemis cotula); assay: as above; conditions: 14 DAA
# Excerpt: as §1, §2
# [3] = tested on: Virginia pepperweed (LEPVI, Lepidium virginicum); assay: as above; conditions: 27 DAA
# Excerpt: as §1, §2
# [4] = tested on: sickle pod (CASOB, Senna obtusifolia); assay: as above
# Excerpt: as §1, §2
# [5] = tested on: bitter sneezeweed (HENAM, Helenium amarum); assay: as above
# Excerpt: as §1, §2
# [6] = tested on: annual yellow sweetclover (MEUIN, Melilotus indicus); assay: as above; conditions: 30 DAA
# Excerpt: as §1, §2
# [7] = tested on: annual marsh-elder (IVAAN, Iva annua); assay: as above
# Excerpt: as §1, §2
# [8] = tested on: brown knapweed (CENJA, Centaurea jacea); assay: as above
# Excerpt: as §1, §2
# [9] = tested on: goldenrod (SOOSS, Solidago sp.); assay: as above; conditions: 67 DAA
# Excerpt: as §1, §2
# [10] = tested on: hairy aster (ASTPI, Symphyotrichum pilosum); assay: as above
# Excerpt: as §1, §2
# [11] = tested on: white clover (TRFRE, Trifolium repens); assay: Field trial United States, safening effect (visual injury) on white clover
# Excerpt: Field trials were established in multiple states in the United States to evaluate the safening effect of herbicide treatments to white clover (TRFRE, Trifolium repens) in existing pasture lands. Trials were designed as randomized complete blocks with four replicates. All trials were established with a minimum plot size of 3 meters (m) by 8 m (width×length).
# All herbicide treatments were applied post-emergence with applications made to the white clover. Herbicides were applied with backpack sprayers using carbon dioxide (CO2) as a propellant. The sprayers utilized flat fan spray nozzles calibrated to deliver a uniform spray pattern that provided thorough coverage of the foliage using a 187 L/ha spray volume. All treatments were applied with Activator 90 non-ionic surfactant at 0.25% v/v.
# The white clover was evaluated on the number of days after application (DAA) given in each table below. Injury to the white clover was assessed visually at several intervals after application as percent overall injury, compared to an untreated control plot. The overall injury assessments were based on visual ratings of growth inhibition, leaf deformity, epinasty, and chlorosis.
smiles,measurement,setting,value
"COc1c(Cl)ccc(-c2nc(C(=O)OCc3ccccc3)c(Cl)c(N)c2F)c1F [Florpyrauxifen Benzyl, florpyrauxifen benzyl]",Visual Weed Control RANAC Obs,"[1]; 10 DAA, 9.44 g ae/ha",0%
same,Visual Weed Control RANAC Obs,"[1]; 40 DAA, 9.44 g ae/ha",0%
same,Visual Weed Control ANTCO Obs,[2]; 12.5 g ae/ha,10%
same,Visual Weed Control LEPVI Obs,[3]; 9.5 g ae/ha,62%
same,Visual Weed Control LEPVI Obs,[3]; 12.5 g ae/ha,70%
same,Visual Weed Control LEPVI Obs,[3]; 19 g ae/ha,65%
same,Visual Weed Control CASOB Obs,"[4]; 30 DAA, 12.5 g ae/ha",10%
same,Visual Weed Control CASOB Obs,"[4]; 30 DAA, 19 g ae/ha",10%
same,Visual Weed Control CASOB Obs,"[4]; 45 DAA, 12.5 g ae/ha",10%
same,Visual Weed Control CASOB Obs,"[4]; 45 DAA, 19 g ae/ha",10%
same,Visual Weed Control HENAM Obs,"[5]; 30 DAA, 9.5 g ae/ha",60%
same,Visual Weed Control HENAM Obs,"[5]; 30 DAA, 12.5 g ae/ha",60%
same,Visual Weed Control HENAM Obs,"[5]; 80 DAA, 12.5 g ae/ha",40%
same,Visual Weed Control MEUIN Obs,[6]; 19 g ae/ha,10%
same,Visual Weed Control IVAAN Obs,"[7]; 41 DAA, 12.5 g ae/ha",38%
same,Visual Weed Control IVAAN Obs,"[7]; 41 DAA, 19 g ae/ha",50%
same,Visual Weed Control IVAAN Obs,"[7]; 56 DAA, 12.5 g ae/ha",42%
same,Visual Weed Control IVAAN Obs,"[7]; 75 DAA, 9.5 g ae/ha",25%
same,Visual Weed Control IVAAN Obs,"[7]; 75 DAA, 12.5 g ae/ha",48%
same,Visual Weed Control IVAAN Obs,"[7]; 83 DAA, 9.5 g ae/ha",30%
same,Visual Weed Control IVAAN Obs,"[7]; 83 DAA, 12.5 g ae/ha",48%
same,Visual Weed Control CENJA Obs,"[8]; 67 DAA, 19 g ae/ha",62%
same,Visual Weed Control CENJA Obs,"[8]; 88 DAA, 19 g ae/ha",62%
same,Visual Weed Control CENJA Obs,"[8]; 117 DAA, 9.5 g ae/ha",21%
same,Visual Weed Control CENJA Obs,"[8]; 117 DAA, 19 g ae/ha",31%
same,Visual Weed Control SOOS Obs,[9]; 9.5 g ae/ha,75%
same,Visual Weed Control ASTPI Obs,"[10]; 88 DAA, 9.5 g ae/ha",75%
same,Visual Weed Control ASTPI Obs,"[10]; 117 DAA, 9.5 g ae/ha",20%
"O=C(O)COc1ccc(Cl)cc1Cl [2,4-D Choline, 2,4-D choline]",Visual Weed Control RANAC Obs,"[1]; 10 DAA, 750 g ae/ha",8%
same,Visual Weed Control RANAC Obs,"[1]; 40 DAA, 750 g ae/ha",28%
same,Visual Weed Control ANTCO Obs,[2]; 840 g ae/ha,30%
same,Visual Weed Control LEPVI Obs,[3]; 840 g ae/ha,74%
same,Visual Weed Control CASOB Obs,"[4]; 30 DAA, 840 g ae/ha",10%
same,Visual Weed Control CASOB Obs,"[4]; 45 DAA, 840 g ae/ha",10%
same,Visual Weed Control HENAM Obs,"[5]; 30 DAA, 840 g ae/ha",74%
same,Visual Weed Control HENAM Obs,"[5]; 80 DAA, 840 g ae/ha",90%
same,Visual Weed Control MEUIN Obs,[6]; 840 g ae/ha,20%
same,Visual Weed Control IVAAN Obs,"[7]; 41 DAA, 840 g ae/ha",38%
same,Visual Weed Control IVAAN Obs,"[7]; 56 DAA, 840 g ae/ha",38%
same,Visual Weed Control IVAAN Obs,"[7]; 75 DAA, 840 g ae/ha",30%
same,Visual Weed Control IVAAN Obs,"[7]; 83 DAA, 840 g ae/ha",35%
same,Visual Weed Control CENJA Obs,"[8]; 67 DAA, 840 g ae/ha",0%
same,Visual Weed Control CENJA Obs,"[8]; 88 DAA, 840 g ae/ha",0%
same,Visual Weed Control CENJA Obs,"[8]; 117 DAA, 840 g ae/ha",0%
same,Visual Weed Control SOOS Obs,[9]; 840 g ae/ha,15%
same,Visual Weed Control ASTPI Obs,"[10]; 88 DAA, 840 g ae/ha",10%
same,Visual Weed Control ASTPI Obs,"[10]; 117 DAA, 840 g ae/ha",5%
same,Visual Injury TRFRE Obs,"[11]; 0 DAA, 754 g ae/ha",30%
same,Visual Injury TRFRE Obs,"[11]; 0 DAA, 840 g ae/ha",6.5%
same,Visual Injury TRFRE Obs,"[11]; 7 DAA, 754 g ae/ha",4.8%
same,Visual Injury TRFRE Obs,"[11]; 7 DAA, 840 g ae/ha",10%
same,Visual Injury TRFRE Obs,"[11]; 14 DAA, 754 g ae/ha",86.2%
same,Visual Injury TRFRE Obs,"[11]; 14 DAA, 840 g ae/ha",15%
same,Visual Injury TRFRE Obs,"[11]; 21 DAA, 840 g ae/ha",11.2%
same,Visual Injury TRFRE Obs,"[11]; 28 DAA, 840 g ae/ha",10%
